System: S. pyogenes strain JRS4
Assay: Live cell labeling with sortase A substrate in the presence of antibiotics: phenotype and cell size distribution
Type: cell-based, Streptococcus pyogenes
Settings: not given
From the text: Streptococcal cell wall synthesis consists of cylindrical peripheral synthesis and septal synthesis (Fig. 1A). A study using Streptococcus pneumoniae illustrated that the serine-threonine kinase StkP controls the switch from peripheral synthesis to septal synthesis. Splitting of the septum (cell separation) is then mediated by the action of autolysin. We labeled the GAS cell wall using the sortase method in the absence of antibiotics, and the observed labeling patterns of GAS were classified into three phenotypes (Fig. 1A–C). Phenotype A cells are newly divided cells without specific fluorescent labeling. Phenotype B cells are in the peripheral growth stage. A characteristic two-elongated-dot image or an open ring corresponds to peripheral growth near the bacterial division site. Phenotype C cells are in the septal growth stage, and the dividing septum is fluorescently stained. The distribution (%) of phenotypes A, B, and C among cells was 37 ± 2, 47 ± 2, and 16 ± 1, respectively, in log-phase GAS. Data represent the mean ± sem (n = 3). Subsequently, we constructed a histogram of each phenotype population as a function of bacterial cell length, as defined in Fig. 1C (orange, Fig. 1D). The subpopulation of cells with a specific phenotype is overlaid on the total cell size distribution (blue). […] The histograms also illustrate that cells grow from phenotype A, through phenotype B, to phenotype C (followed by cell separation), confirming that peripheral growth precedes septal growth in GAS. We speculated that the changes of this histogram would provide information on antibiotic modes of action.
(§1) S. pyogenes strain JRS4 (M6^+ F1^+) was grown in Todd-Hewitt broth supplemented with 0.3% yeast extract (THY) at 37 °C.
Bacterial cells grown in THY to an OD600 of 0.35–0.4 (exponential phase) at 37 °C were exposed to antibiotics and incubated for 1 h, and 100-μL aliquots of culture mixture were taken and added to a solution of sortase substrate (FL-KLPETG-NH2, final concentration = 1 mM). After incubation for 2.5 h at 37 °C in the dark, Nile Red (10 μg/mL) and DAPI (1 μg/mL) were added. The mixture was allowed to stand for 30 min and then centrifuged (12,000 rpm, 2 min, 4 °C). The supernatant was removed, and the pellet was washed thrice with PBS buffer to remove unreacted sortase substrate. Cells were re-suspended in PBS buffer, mounted on a glass slide, and examined by fluorescent microscopy. Images were analyzed manually using ImageJ software (ver. 1.50). Sets of axial- and equatorial-length were also recorded for each cell. At least 200 cells were analyzed in each analysis. All experiments were performed at least thrice, and representative results are shown.

Molecule	proportion of cells, phenotype B (peripheral growth) [%]	proportion of cells, phenotype C (septal growth) [%]	proportion of cells, phenotype D′ (multiple peripheral growth sites, axially elongated) [%]
des-N-methylleucyl chlorobiphenyl vancomycin [ΔNCBPV]	45 ± 12	17 ± 8	24 ± 3

Same assay, conditions: antibiotic at subbacteriostatic conc.; mean ± sem, n = 3

Molecule	proportion of cells, phenotype A (no active cell wall synthesis) [%]	proportion of cells, phenotype B (peripheral growth) [%]	proportion of cells, phenotype C (septal growth) [%]	proportion of cells, phenotype D (multiple septa in an elongated cell) [%]	proportion of cells, phenotype D′ (multiple peripheral growth sites, axially elongated) [%]
N[C@@H]1CON=C1O [D-Cycloserine]	25 ± 6	68 ± 7	2 ± 1	5 ± 1	
Cc1onc(-c2ccccc2)c1C(=O)N[C@@H]1C(=O)N2[C@@H]1SC(C)(C)[C@@H]2C(=O)O [Oxacillin]	19 ± 4	60 ± 4	12 ± 5	9 ± 2	
Flavomycin	4 ± 1	20 ± 6	22 ± 2	54 ± 5	
Ramoplanin	27 ± 3	50 ± 4	23 ± 5		
Vancomycin	34 ± 4	49 ± 4	17 ± 1		
chlorobiphenyl vancomycin [CBPV]	20 ± 1	58 ± 6	9 ± 2		13 ± 4
des-N-methylleucyl chlorobiphenyl vancomycin [ΔNCBPV]	14 ± 1				

Same assay, conditions: antibiotic at subbacteriostatic conc.; n = 55 (CBPV), 114 (flavomycin), 105 (ΔNCBPV) cells

Molecule	cells with one or more completed septa among cells with multiple division sites [%]
Flavomycin	98
chlorobiphenyl vancomycin [CBPV]	4
des-N-methylleucyl chlorobiphenyl vancomycin [ΔNCBPV]	52

System: S. pyogenes strain JRS4
Assay: Determination of subbacteriostatic concentrations (growth curve, OD600)
Type: cell-based, Streptococcus pyogenes
Settings: minimum dose at which growth curve plateaus at OD600 <1.0 after 4-h incubation at 37 °C, THY, added at OD600 0.4
Procedure: as §1
S. pyogenes were grown in THY to an OD600 of 0.4 (exponential phase) at 37 °C and then added a solution of antibiotic of varying concentration. The culture mixture was further incubated for 4 h at 37 °C. Subbacteriostatic concentration in this study is the minimum dose of antibiotic that makes growth curve reach a plateau at OD600 of <1.0 after the 4-h incubation. In the absence of antibiotics, GAS cells grew up to OD600 of approximately 1.6. Subbacteriostatic concentrations were determined for each antibiotic, and mode-of-action analyses were performed at these concentrations (Figs 2, 3, 4, 5, 6 and 7).

Molecule	subbacteriostatic concentration [µg/mL]
N[C@@H]1CON=C1O [D-Cycloserine]	100
Cc1onc(-c2ccccc2)c1C(=O)N[C@@H]1C(=O)N2[C@@H]1SC(C)(C)[C@@H]2C(=O)O [Oxacillin]	4
Bacitracin	4
Flavomycin	1
Ramoplanin	2
Vancomycin	4
chlorobiphenyl vancomycin [CBPV]	0.25
des-N-methylleucyl chlorobiphenyl vancomycin [ΔNCBPV]	3

System: gram-positive strains
Assay: not given
Settings: ref many studies; cited from earlier work

Molecule	antibacterial activity
des-N-methyl-leucyl-vancomycin	totally loses its antibacterial activity

System: S. pyogenes strain JRS4
Assay: Imaging of peripheral growth by FDAA pre-labeling in D-cycloserine/oxacillin-treated cells
Type: cell-based, Streptococcus pyogenes
Settings: FDAA pre-labeling 1 h, then antibiotic 3 h
From the text: The observed enlargement of cells implied that cell wall synthesis could proceed, at least partly, in the presence of these antibiotics at their subbacteriostatic concentrations. We therefore studied the relationship between peripheral growth length and axial length for cells via dual-color staining. Nile red was used to stain the bacterial cell membrane, and the fluorescent D-amino acid (FDAA) labeling[10]–[12] was employed for old cell wall (preexisting prior to antibiotic treatment). In the presence of antibiotic, peripheral growth length was measured as a gap between the old (stained) regions of the preexisting cell wall (Fig. 5A and B).
Bacterial cells grown in THY to an OD600 of 0.2 (exponential phase) at 37 °C, and 100-μL aliquots of culture mixture were taken (Fig. 5). FDAA solution (final concentration = 1 mM; FL-D-Lys for Fig. 5A and E, tetramethylrhodamine- D-Lys for Fig. 5D) was added, and the mixture was incubated for 1 h at 37 °C in the dark. The mixture was centrifuged (12,000 rpm, 2 min, 4 °C), the supernatant was removed, and the pellet was washed with PBS buffer thrice to remove unreacted FDAA. Cells were re-suspended in 100-μL THY and incubated at 37 °C in the dark with antibiotics for 2.5 h. […]

Molecule	peripheral growth/axial length relationship (dot blot analysis)
N[C@@H]1CON=C1O [D-Cycloserine]	considerably larger than that of oxacillin-treated cells
Cc1onc(-c2ccccc2)c1C(=O)N[C@@H]1C(=O)N2[C@@H]1SC(C)(C)[C@@H]2C(=O)O [Oxacillin]	peripheral growth barely contributed to cell enlargement

Source: paper PMC5430839, “Deciphering the mode of action of cell wall-inhibiting antibiotics using metabolic labeling of growing peptidoglycan in Streptococcus pyogenes” (Scientific Reports, 2017)
